{
  "source": "paper PMC9602792",
  "about": "“Preclinical evaluation of the epithelial sodium channel inhibitor AZD5634 and implications on human translation” (American Journal of Physiology - Lung Cellular and …, 2022)",
  "key": {"hERG": {"molecular_target": "T1, hERG (Homo sapiens, UniProt Q12809)", "T1 construct": "Millipore & Cerep (outsourced panels)", "T1 sequence (Q12809 whole entry)": "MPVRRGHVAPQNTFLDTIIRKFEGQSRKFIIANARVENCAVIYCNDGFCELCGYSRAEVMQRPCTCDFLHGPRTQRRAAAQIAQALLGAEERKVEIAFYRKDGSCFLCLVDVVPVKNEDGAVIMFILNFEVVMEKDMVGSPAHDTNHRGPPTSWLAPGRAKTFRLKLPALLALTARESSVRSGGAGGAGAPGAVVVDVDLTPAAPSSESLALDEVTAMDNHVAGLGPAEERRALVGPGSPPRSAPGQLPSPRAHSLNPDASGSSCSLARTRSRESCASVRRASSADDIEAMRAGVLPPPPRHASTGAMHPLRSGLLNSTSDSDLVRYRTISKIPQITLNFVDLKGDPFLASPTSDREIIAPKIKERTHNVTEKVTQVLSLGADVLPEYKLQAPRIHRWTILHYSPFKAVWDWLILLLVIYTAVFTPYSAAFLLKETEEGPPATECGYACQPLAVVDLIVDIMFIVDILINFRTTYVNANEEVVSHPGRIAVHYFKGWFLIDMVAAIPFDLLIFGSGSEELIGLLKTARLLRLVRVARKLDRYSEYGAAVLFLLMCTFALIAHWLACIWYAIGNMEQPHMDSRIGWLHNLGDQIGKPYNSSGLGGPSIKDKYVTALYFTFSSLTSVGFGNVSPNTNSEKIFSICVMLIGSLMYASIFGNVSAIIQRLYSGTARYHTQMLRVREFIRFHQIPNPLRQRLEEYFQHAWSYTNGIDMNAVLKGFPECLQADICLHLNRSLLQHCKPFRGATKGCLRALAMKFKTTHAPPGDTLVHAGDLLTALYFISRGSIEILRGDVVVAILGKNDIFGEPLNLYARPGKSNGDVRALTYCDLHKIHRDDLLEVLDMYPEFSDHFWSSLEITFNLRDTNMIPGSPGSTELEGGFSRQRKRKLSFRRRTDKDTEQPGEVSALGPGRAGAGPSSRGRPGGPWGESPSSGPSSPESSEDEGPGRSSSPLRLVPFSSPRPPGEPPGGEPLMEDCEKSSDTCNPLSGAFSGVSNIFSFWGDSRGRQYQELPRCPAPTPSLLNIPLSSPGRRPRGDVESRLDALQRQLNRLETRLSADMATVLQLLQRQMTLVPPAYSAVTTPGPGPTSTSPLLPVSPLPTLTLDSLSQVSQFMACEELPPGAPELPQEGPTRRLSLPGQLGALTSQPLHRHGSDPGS", "test": "Secondary pharmacology binding panel (Millipore & Cerep)", "settings": "at 10 µM", "excerpt": "As pharmacological properties regarding selectivity are crucial for the development of ENaC inhibitors, we first assessed the properties of AZD5634 through a standard battery of assessments."}, "[1]": {"test_system": "F508del-homozygous HBEC cultures", "test": "μOCT imaging of ASL depth, MCT rate and CBF in F508del-homozygous CF HBEC cultures", "type": "cell-based, human", "settings": "AZD5634 1 µM apical", "description": "Using previously described techniques ([2], [37]), epithelial cells were harvested from excised lung tissue derived from CF donors homozygous for F508del CFTR, expanded, and grown until confluency was attained. The cells were then seeded on 6.5-mm-diameter, 24-well Transwell permeable membrane supports coated with NIH 3T3 fibroblast unconditioned media (0.5 × 10^6 cells/filter; Corning Inc., Corning, NY) and further allowed to mature in differentiating media (PneumaCult ALI, […] Technologies, Cambridge, MA) for a minimum of 4–5 wk until fully differentiated. To stimulate fresh mucus secretion and formation of an even ASL layer, the cells were washed 48–72 h before experimentation with PneumaCult ALI media (80 µL), added apically, and then aspirated following 30–45 min incubation at 37°C. The washing process was repeated with a 15-min incubation period and the mucus layer was allowed to reestablish, after which the cells were treated with 1 µL of AZD5634 (1 µM, apical), alone and in combination with lumacaftor and ivacaftor (luma/iva; 3 µM/10 µM, basolateral). PBS (1% DMSO, apical) served as a vehicle control. […] Only passage 1 and 2 monolayers were used for these studies.\nμOCT imaging and analysis were conducted in vitro and ex vivo as detailed in previous publications ([2], [39]–[41]). […] Following imaging of HBEC cultures and of excised trachea and lungs, images were assessed to obtain quantitative measurements of mucociliary transport (MCT) rate, ASL depth, and ciliary beat frequency (CBF). MCT rates were calculated by analyzing the distance traveled by native particles in the mucus layer over time across multiple frames. […] CBF was determined by using custom code developed in Matlab (Mathworks, Natick, MA) to quantify the reflectance of beating cilia by Fourier analysis. […]\nDescriptive statistics were calculated and means compared using unpaired or paired t tests, or ANOVA, with post hoc analyses conducted for multiple comparisons where appropriate. […]"}, "[2]": {"parameters": "method as in unpublished information", "settings": "ref unpublished information, cited from earlier work"}},
  "data": [
    {"substance": "AZD5634", "values": [
      {"measurement": "hERG inhibition", "setting": "hERG", "result": 13, "unit": "%"},
      {"measurement": "ASL depth", "setting": "[1]; 6 h, luma/iva 3 µM/10 µM basolateral, absolute values", "result": "24.8 ± 3.6", "unit": "µm"},
      {"measurement": "CBF", "setting": "[1]; absolute value", "result": "8.6 ± 0.5", "unit": "Hz"},
      {"measurement": "MCT rate", "setting": "[1]; luma/iva 3 µM/10 µM basolateral, absolute values", "result": "2.5 ± 0.5", "unit": "mm/min"},
      {"measurement": "hyperkalemia", "setting": "[2]; after inhalation and/or nebulization", "result": "does not cause hyperkalemia"},
      {"measurement": "renal clearance", "setting": "[2]", "result": "minimal"}
    ]}
  ]
}
